# Tested on: 958667-338-R-J2-PDC tumor spheroids viability
# Test: Anticancer human tumor 958667-338-R-J2-PDC patient-derived colon adenocarcinoma cell line growth inhibition [PI3K]
# Conditions: spheroids with HUVEC and MSC; for viability, T/C: stronger effect = lower value
# How it was run: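 Spheroid viability read-out. Co-cultures contained the tumor line plus HUVEC and human MSCs. Each agent was paired with a PI3K inhibitor (inavolisib, alpelisib, duvelisib, copanlisib) across half-log dilutions starting at clinical Cmax, or at 10 microM when Cmax was unknown.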
# [1] = curve of first compound, second compound 0.00316 µM
# [2] = curve of first compound, second compound 0.01 µM
# [3] = curve of first compound, second compound 0.0316 µM
# [4] = curve of first compound, second compound 0.1 µM
# [5] = curve of first compound, second compound 0.316 µM
# [6] = curve of first compound, second compound 1 µM
# [7] = second compound 0.00316 µM, first compound 0.0316 µM
# [8] = second compound 0.00316 µM, first compound 0.1 µM
# [9] = second compound 0.00316 µM, first compound 0.316 µM
# [10] = second compound 0.00316 µM, first compound 1 µM
# [11] = second compound 0.00316 µM, first compound 3.16 µM
# [12] = second compound 0.00316 µM, first compound 10 µM
# [13] = second compound 0.01 µM, first compound 0.0316 µM
# [14] = second compound 0.01 µM, first compound 0.1 µM
# [15] = second compound 0.01 µM, first compound 0.316 µM
# [16] = second compound 0.01 µM, first compound 1 µM
# [17] = second compound 0.01 µM, first compound 3.16 µM
# [18] = second compound 0.01 µM, first compound 10 µM
# [19] = second compound 0.0316 µM, first compound 0.0316 µM
# [20] = second compound 0.0316 µM, first compound 0.1 µM
# [21] = second compound 0.0316 µM, first compound 0.316 µM
# [22] = second compound 0.0316 µM, first compound 1 µM
# [23] = second compound 0.0316 µM, first compound 3.16 µM
# [24] = second compound 0.0316 µM, first compound 10 µM
# [25] = second compound 0.1 µM, first compound 0.0316 µM
# [26] = second compound 0.1 µM, first compound 0.1 µM
# [27] = second compound 0.1 µM, first compound 0.316 µM
# [28] = second compound 0.1 µM, first compound 1 µM
# [29] = second compound 0.1 µM, first compound 3.16 µM
# [30] = second compound 0.1 µM, first compound 10 µM
# [31] = second compound 0.316 µM, first compound 0.0316 µM
# [32] = second compound 0.316 µM, first compound 0.1 µM
# [33] = second compound 0.316 µM, first compound 0.316 µM
# [34] = second compound 0.316 µM, first compound 1 µM
# [35] = second compound 0.316 µM, first compound 3.16 µM
# [36] = second compound 0.316 µM, first compound 10 µM
# [37] = second compound 1 µM, first compound 0.0316 µM
# [38] = second compound 1 µM, first compound 0.1 µM
# [39] = second compound 1 µM, first compound 0.316 µM
# [40] = second compound 1 µM, first compound 1 µM
# [41] = second compound 1 µM, first compound 3.16 µM
# [42] = second compound 1 µM, first compound 10 µM
# 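Also: spheroids exposed to compounds for seven days before readout.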
structure (smiles),measurement,setting,value
CC(Cn1ccc(-c2ccc(C#N)c(Cl)c2)n1)NC(=O)c1cc(C(C)O)[nH]n1 (stereo not given) + COc1c(OCCCN2CCOCC2)ccc2c3n(c(=NC(=O)c4cnc(N)nc4)nc12)CCN3,IC50,[1],> 10 µM
same,IC50,[2],> 10 µM
same,IC50,[3],> 10 µM
same,IC50,[4],7.69 µM
same,IC50,[5],< 0.0316 µM
same,IC50,[6],< 0.0316 µM
same,"viability, T/C",[7],109%
same,"viability, T/C",[8],89.7%
same,"viability, T/C",[9],111%
same,"viability, T/C",[10],94.9%
same,"viability, T/C",[11],97.7%
same,"viability, T/C",[12],102%
same,"viability, T/C",[13],83.1%
same,"viability, T/C",[14],83.1%
same,"viability, T/C",[15],85.2%
same,"viability, T/C",[16],81.1%
same,"viability, T/C",[17],104%
same,"viability, T/C",[18],80.4%
same,"viability, T/C",[19],75.3%
same,"viability, T/C",[20],74.6%
same,"viability, T/C",[21],62.8%
same,"viability, T/C",[22],72.4%
same,"viability, T/C",[23],76.7%
same,"viability, T/C",[24],69.9%
same,"viability, T/C",[25],49.5%
same,"viability, T/C",[26],66.2%
same,"viability, T/C",[27],56.2%
same,"viability, T/C",[28],59.2%
same,"viability, T/C",[29],58.5%
same,"viability, T/C",[30],47.6%
same,"viability, T/C",[31],33.6%
same,"viability, T/C",[32],40.9%
same,"viability, T/C",[33],37%
same,"viability, T/C",[34],39.4%
same,"viability, T/C",[35],37.3%
same,"viability, T/C",[36],49.2%
same,"viability, T/C",[37],19.5%
same,"viability, T/C",[38],18.7%
same,"viability, T/C",[39],20.6%
same,"viability, T/C",[40],19.9%
same,"viability, T/C",[41],22.5%
same,"viability, T/C",[42],14.6%
C#Cc1c(F)ccc2cc(O)cc(-c3ncc4c(N5CC6CCC(C5)N6)nc(OCC56CCCN5CC(F)C6)nc4c3F)c12 (stereo not given) + COc1c(OCCCN2CCOCC2)ccc2c3n(c(=NC(=O)c4cnc(N)nc4)nc12)CCN3,IC50,[1],> 10 µM
same,IC50,[2],> 10 µM
same,IC50,[3],6.5 µM
same,IC50,[4],1.09 µM
same,IC50,[5],< 0.0316 µM
same,IC50,[6],< 0.0316 µM
same,"viability, T/C",[7],112%
same,"viability, T/C",[8],107%
same,"viability, T/C",[9],83.9%
same,"viability, T/C",[10],108%
same,"viability, T/C",[11],86.9%
same,"viability, T/C",[12],74%
same,"viability, T/C",[13],93.4%
same,"viability, T/C",[14],86.9%
same,"viability, T/C",[15],109%
same,"viability, T/C",[16],73.3%
same,"viability, T/C",[17],68.7%
same,"viability, T/C",[18],56.7%
same,"viability, T/C",[19],70.8%
same,"viability, T/C",[20],86.9%
same,"viability, T/C",[21],73.2%
same,"viability, T/C",[22],70.4%
same,"viability, T/C",[23],62.1%
same,"viability, T/C",[24],42.9%
same,"viability, T/C",[25],71.7%
same,"viability, T/C",[26],63.4%
same,"viability, T/C",[27],54.6%
same,"viability, T/C",[28],51.6%
same,"viability, T/C",[29],46.7%
same,"viability, T/C",[30],28%
same,"viability, T/C",[31],35.1%
same,"viability, T/C",[32],41.2%
same,"viability, T/C",[33],35.8%
same,"viability, T/C",[34],32.7%
same,"viability, T/C",[35],20.4%
same,"viability, T/C",[36],10%
same,"viability, T/C",[37],14.1%
same,"viability, T/C",[38],18.1%
same,"viability, T/C",[39],24.2%
same,"viability, T/C",[40],15.9%
same,"viability, T/C",[41],8.98%
same,"viability, T/C",[42],1.67%
Cn1cnc2c(F)c(Nc3ccc(Br)cc3Cl)c(C(=O)NOCCO)cc21,"viability, T/C",compound 0.00949 µM,96.5% [middle of 4 runs]
same,"viability, T/C",compound 0.0949 µM,85.5% [middle of 4 runs]
same,"viability, T/C",compound 0.3 µM,54.2% [middle of 4 runs]
same,"viability, T/C",compound 0.949 µM,35.9% [middle of 4 runs]
same,"viability, T/C",compound 3 µM,20.5% [middle of 4 runs]
same,IC50,curve of compound,377 nM [middle of 4 runs]
